What was measured:
AMBEL (Ragweed, Common) = assay: Preemergence herbicidal evaluation; type: in vivo, Ambrosia artemisifolia; conditions: rated 4-5 weeks after treatment
Outline: (§1)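 Greenhouse preemergence test: seed-soil mix sown on ~1 inch soil; aqueous acetone spray at equivalent of ~0.0156–0.500 kg/ha; greenhouse-held and watered; scored 0–9 visually at 4–5 weeks.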

[1] = tested on: ECHORC (Watergrass (Calif.)); assay: Postemergence weed control under flooded paddy conditions; type: in vivo, Echinochloa oryzoides; conditions: postemergence weeds, rated 3 to 4 weeks after treatment
Outline: (§2)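 Containers holding 3–5 cm weeds and rice at 1.5–2.5 leaves are flooded to 1.5–3 cm above soil. Compound in 50/50 v/v aqueous/acetone is then added directly to the water, about 0.0313–0.500 kg/ha. Plants are kept in the greenhouse and rated 0–9 visually at 3–4 weeks.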

CYPIR (Rice Flatsedge) = assay: Preemergence weed control under flooded paddy conditions; type: in vivo, Cyperus iria; conditions: rated 3-4 weeks after treatment
Outline: (§3)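 Silt loam, seeds in top 0.5 cm; flood held 1.5-3 cm; test cpd as acetone/water 50/50 into flood water, ~0.0313-0.500 kg/ha a.i.; greenhouse 3-4 wk; visual 0-9 score vs control.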

[2] = tested on: IPOHE (Morningglory, Ivyleaf); assay: Preemergence herbicidal evaluation; type: in vivo, Ipomoea hederacea; conditions: rated 4-5 weeks after treatment
Outline: as §1

CYPSE (Flatsedge) [3] = assay: Postemergence weed control under flooded paddy conditions; type: in vivo, Cyperus serotinus; conditions: postemergence weeds, rated 3 to 4 weeks after treatment
Outline: as §2

GALAP (Galium) = assay: Postemergence herbicidal evaluation; type: in vivo, Galium aparine; conditions: postemergence
Outline: (§4)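 Compound is applied as a foliar spray to seedlings about two weeks old, formulated in equal parts acetone and water with 0.5% TWEEN 20 and delivered at 40 psi to give about 0.0156–0.500 kg per hectare. Injury is rated visually 0–9 after four to five weeks.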

ZEAMX (Corn, Field) [4] = assay: Preemergence herbicidal evaluation; type: in vivo, Zea mays; conditions: rated 4-5 weeks after treatment
Outline: as §1

CYPSE (Flatsedge) [5] = assay: Preemergence weed control under flooded paddy conditions; type: in vivo, Cyperus serotinus; conditions: rated 3-4 weeks after treatment
Outline: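 Herbicidal effect is scored visually on a 0-9 scale against an untreated control, three to four weeks after compounds are pipetted into the flood water (1.5 to 3 cm deep) over seeds planted in silt loam at 0.5 cm depth. Rates: about 0.0313 to 0.500 kg/ha.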

CASOB (Sicklepod) = assay: Postemergence herbicidal evaluation; type: in vivo, Cassia obtusifolia; conditions: postemergence
Outline: as §4

[6] = tested on: CHEAL (Lambsquarters, Common); assay: Preemergence herbicidal evaluation; type: in vivo, Chenopodium album; conditions: rated 4-5 weeks after treatment
Outline: as §1

[7] = tested on: ECHORC (Watergrass (Calif.)); assay: Preemergence weed control under flooded paddy conditions; type: in vivo, Echinochloa oryzoides; conditions: rated 3-4 weeks after treatment
Outline: as §3

ZEAMX (Corn, Field) [8] = assay: Postemergence herbicidal evaluation; type: in vivo, Zea mays; conditions: postemergence
Outline: as §4

[9] = tested on: TRZAWR (Wheat, Winter, cv Riband); assay: Preemergence herbicidal evaluation; type: in vivo, Triticum aestivum; conditions: rated 4-5 weeks after treatment
Outline: as §1

ORYSAT (Rice, Tebonnet) = assay: Preemergence herbicidal evaluation; type: in vivo, Oryza sativa, (L.) Tebonnet; conditions: rated 4-5 weeks after treatment
Outline: as §1

COC(=O)C(Cc1ccc(Cl)cc1)N1C(=O)CSC1=Nc1cc(-n2c(=O)cc(C(F)(F)F)n(C)c2=O)c(F)cc1Cl (racemic) [Compound 77, Methyl α-(p-chlorobenzyl)-2-{{2-chloro-5-[3,6-dihydro-3-methyl-2,6-dioxo-4-(trifluoromethyl)-1(2H)-pyrimidinyl]-4-fluorophenyl}imino}-4-oxo-3-thiazolidineacetate, DL-]
4.5: ZEAMX herbicidal rating (ZEAMX (Corn, Field) [8]; rate 0.0630 kg/ha)
7.0: Preemergence herbicidal rating AMBEL (AMBEL (Ragweed, Common); rate 0.2500 kg/ha) | GALAP herbicidal rating (GALAP (Galium); rate 0.0630 kg/ha)
1.0: Preemergence herbicidal rating AMBEL (AMBEL (Ragweed, Common); rate 0.0625 kg/ha) | Preemergence herbicidal rating IPOHE ([2]; rate 0.0156 kg/ha) | GALAP herbicidal rating (GALAP (Galium); rate 0.0158 kg/ha) | GALAP herbicidal rating (GALAP (Galium); rate 0.0315 kg/ha) | Preemergence herbicidal rating ZEAMX (ZEAMX (Corn, Field) [4]; rate 0.2500 kg/ha) | CASOB herbicidal rating (CASOB (Sicklepod); rate 0.0158 kg/ha) | CASOB herbicidal rating (CASOB (Sicklepod); rate 0.0315 kg/ha) | CASOB herbicidal rating (CASOB (Sicklepod); rate 0.0630 kg/ha) | Preemergence herbicidal rating TRZAWR ([9]; rate 0.1250 kg/ha)
0.0: Preemergence herbicidal rating AMBEL (AMBEL (Ragweed, Common); rate 0.0156 kg/ha) | CYPIR herbicidal effect rating (CYPIR (Rice Flatsedge); 0.0313 kg/ha) | CYPIR herbicidal effect rating (CYPIR (Rice Flatsedge); 0.0625 kg/ha) | CYPIR herbicidal effect rating (CYPIR (Rice Flatsedge); 0.1250 kg/ha) | CYPIR herbicidal effect rating (CYPIR (Rice Flatsedge); 0.2500 kg/ha) | Preemergence herbicidal rating IPOHE ([2]; rate 0.0313 kg/ha) | Preemergence herbicidal rating IPOHE ([2]; rate 0.0625 kg/ha) | Preemergence herbicidal rating IPOHE ([2]; rate 0.1250 kg/ha) | Herbicidal rating CYPSE (CYPSE (Flatsedge) [3]; Rate 0.0313 kg/ha) | Herbicidal rating CYPSE (CYPSE (Flatsedge) [3]; Rate 0.0625 kg/ha) | Herbicidal rating CYPSE (CYPSE (Flatsedge) [3]; Rate 0.1250 kg/ha) | Preemergence herbicidal rating ZEAMX (ZEAMX (Corn, Field) [4]; rate 0.0313 kg/ha) | Preemergence herbicidal rating ZEAMX (ZEAMX (Corn, Field) [4]; rate 0.0625 kg/ha) | Preemergence herbicidal rating ZEAMX (ZEAMX (Corn, Field) [4]; rate 0.1250 kg/ha) | CYPSE herbicidal effect rating (CYPSE (Flatsedge) [5]; 0.0313 kg/ha) | CYPSE herbicidal effect rating (CYPSE (Flatsedge) [5]; 0.0625 kg/ha) | CYPSE herbicidal effect rating (CYPSE (Flatsedge) [5]; 0.1250 kg/ha) | Preemergence herbicidal rating TRZAWR ([9]; rate 0.0156 kg/ha) | Preemergence herbicidal rating TRZAWR ([9]; rate 0.0313 kg/ha) | Preemergence herbicidal rating TRZAWR ([9]; rate 0.0625 kg/ha) | Preemergence herbicidal rating TRZAWR ([9]; rate 0.2500 kg/ha) | Preemergence herbicidal rating ORYSAT (ORYSAT (Rice, Tebonnet); rate 0.0156 kg/ha) | Preemergence herbicidal rating ORYSAT (ORYSAT (Rice, Tebonnet); rate 0.0313 kg/ha) | Preemergence herbicidal rating ORYSAT (ORYSAT (Rice, Tebonnet); rate 0.0625 kg/ha) | Preemergence herbicidal rating ORYSAT (ORYSAT (Rice, Tebonnet); rate 0.1250 kg/ha) | Preemergence herbicidal rating ORYSAT (ORYSAT (Rice, Tebonnet); rate 0.2500 kg/ha)
4.0: Herbicidal rating CYPSE (CYPSE (Flatsedge) [3]; Rate 0.2500 kg/ha) | CYPSE herbicidal effect rating (CYPSE (Flatsedge) [5]; 0.2500 kg/ha) | ZEAMX herbicidal rating (ZEAMX (Corn, Field) [8]; rate 0.0158 kg/ha)
9.0: Herbicidal rating ECHORC ([1]; Rate 0.0313 kg/ha) | Herbicidal rating ECHORC ([1]; Rate 0.0625 kg/ha) | Herbicidal rating ECHORC ([1]; Rate 0.1250 kg/ha) | Herbicidal rating ECHORC ([1]; Rate 0.2500 kg/ha) | Preemergence herbicidal rating CHEAL ([6]; rate 0.0313 kg/ha) | Preemergence herbicidal rating CHEAL ([6]; rate 0.0625 kg/ha) | Preemergence herbicidal rating CHEAL ([6]; rate 0.1250 kg/ha) | Preemergence herbicidal rating CHEAL ([6]; rate 0.2500 kg/ha) | ECHORC herbicidal effect rating ([7]; 0.0313 kg/ha) | ECHORC herbicidal effect rating ([7]; 0.0625 kg/ha) | ECHORC herbicidal effect rating ([7]; 0.1250 kg/ha) | ECHORC herbicidal effect rating ([7]; 0.2500 kg/ha)
2.0: Preemergence herbicidal rating AMBEL (AMBEL (Ragweed, Common); rate 0.0313 kg/ha) | Preemergence herbicidal rating AMBEL (AMBEL (Ragweed, Common); rate 0.1250 kg/ha) | Preemergence herbicidal rating IPOHE ([2]; rate 0.2500 kg/ha) | Preemergence herbicidal rating ZEAMX (ZEAMX (Corn, Field) [4]; rate 0.0156 kg/ha) | Preemergence herbicidal rating CHEAL ([6]; rate 0.0156 kg/ha)
3.5: ZEAMX herbicidal rating (ZEAMX (Corn, Field) [8]; rate 0.0315 kg/ha)

— patent US20020137929A1, “1 - (3-heterocyclylphenyl) isothiourea, -isourea, -guanidine and -amidine herbicidal agents” (Intellectual Property Department, BASF Aktiengesellschaft, priority 1998, published 2002)
